Test results from patent US4875922A, “Pyrimidine derivatives” (Imperial Chemical Industries PLC, priority 1986, dated 1989).
Marks after values point to notes of the source that are not given here.

Legend:
Barley = test: Whole plant screen for plant growth regulator activity, barley (BR); type: in vivo, Barley (Atem); conditions: BR, 4000 ppm (4 kg/ha), visual score after 2-6 weeks; for T = Tillering or side shooting: * = decrease in tillering
Experimental: (§1) Compounds 1 to 3 in Table 1 were tested for plant growth regulator activity against five species for various growth effects relevant to plant growth regulation.
(§2) The plant species used in this screen are presented in Table II with the leaf stage at which they were sprayed. Each chemical was applied at 4000 ppm (4 kg/ha in a 1000 l/ha field volume) using a tracksprayer and a SS8004E (Teejet) nozzle.
(§3) After spray the plants were grown in a glasshouse with 25° C. day/22° C. night temperatures and supplementary lighting was supplied when necessary (from mercury vapour lamps), to provide a 16 hour photoperiod. The exception to this were the temperate cereals, wheat and barley which were grown in 16° C. day/13° C. night temperatures.
(§4) After 2-6 weeks in the glasshouse, depending on the time of year, the plants were visually assessed for morphological characteristics. Formulation blanks were used as controls to assess the plants.
(§5) Additional compounds in Table I were tested for plant growth regulator activity using the method of Example 60 except that Tomato was included in the test as an additional species. Tomato, Ailsa Craig, was grown in a single 3 inch pot in peat and treated at the 2 to 21/2 leaves growth stage. The results were presented in Table IV in which Tomato is indicated by the code TO and the Key is otherwise as for Table III.

Apple = test: Whole plant screen for plant growth regulator activity, apple (AP); type: in vivo, Apple (Red Delicious); conditions: 4000 ppm (4 kg/ha), visual score after 2-6 weeks
Experimental: as §1, §2, §3, §4, §5

Wheat = test: Whole plant screen for plant growth regulator activity, wheat (WW); type: in vivo, Wheat (Timmo); conditions: for G = Greening effect / I = Interligular or internodal length reduction / R = Retardation / T = Tillering or side shooting: WW, 4000 ppm (4 kg/ha), visual score after 2-6 weeks; for T = Tillering or side shooting: * = decrease in tillering
Experimental: as §1, §2, §3, §4, §5

Tomato = test: Whole plant screen for plant growth regulator activity, tomato (TO); type: in vivo, Tomato (Ailsa Craig); conditions: 4000 ppm (4 kg/ha), visual score after 2-6 weeks
Experimental: as §2, §3, §4, §5
An astrisk (*) after a score under "T" (tillering) indicated a decrease in tillering.

Rice = test: Whole plant screen for plant growth regulator activity, rice (RC); type: in vivo, Rice (Ishikari); conditions: 4000 ppm (4 kg/ha), visual score after 2-6 weeks
Experimental: as §1, §2, §3, §4, §5

CC(C)CCC(O)(c1cncnc1)C(C)(C)C (stereo not shown) [Compound 29]
1 (10-30%): G = Greening effect (Apple) | G = Greening effect (Tomato) | G = Greening effect (Rice) | T = Tillering or side shooting (Rice; * = decrease in tillering)
3 (61-100%): I = Interligular or internodal length reduction (Wheat) | I = Interligular or internodal length reduction (Rice)
2 (31-60%): I = Interligular or internodal length reduction (Barley) | R = Retardation (Barley) | T = Tillering or side shooting (Barley) | I = Interligular or internodal length reduction (Apple) | R = Retardation (Apple) | G = Greening effect (Wheat) | R = Retardation (Wheat) | T = Tillering or side shooting (Wheat) | I = Interligular or internodal length reduction (Tomato) | R = Retardation (Tomato) | R = Retardation (Rice)

CCCCCCCC(O)(c1cncnc1)C(C)C (stereo not shown) [Compound 26]
1 (10-30%): G = Greening effect (Wheat) | I = Interligular or internodal length reduction (Wheat) | G = Greening effect (Tomato) | I = Interligular or internodal length reduction (Tomato)
2 (31-60%): T = Tillering or side shooting (Barley) | R = Retardation (Wheat) | R = Retardation (Tomato)

CC(C)(C)C(O)(C#CCCCCCl)c1cncnc1 (stereo not shown) [Compound 37]
1 (10-30%): T = Tillering or side shooting (Wheat)
3 (61-100%): G = Greening effect (Barley) | I = Interligular or internodal length reduction (Barley) | R = Retardation (Barley) | T = Tillering or side shooting (Barley) | I = Interligular or internodal length reduction (Wheat)
2 (31-60%): G = Greening effect (Wheat) | R = Retardation (Wheat)

CCCCC(O)(c1cncnc1)C(C)(C)C (stereo not shown) [Compound 35]
2 (31-60%): I = Interligular or internodal length reduction (Tomato) | R = Retardation (Tomato)
3 (61-100%): T = Tillering or side shooting (Barley)
2*: A = Apical damage (Wheat; 4000 ppm)

CC(C)CC#CC(O)(c1cncnc1)C1CC1 (stereo not shown) [Compound 56]
2 (31-60%): G = Greening effect (Wheat) | R = Retardation (Wheat)
1 (10-30%): T = Tillering or side shooting (Wheat) | G = Greening effect (Tomato) | I = Interligular or internodal length reduction (Tomato) | R = Retardation (Tomato)
3 (61-100%): G = Greening effect (Barley) | I = Interligular or internodal length reduction (Barley) | R = Retardation (Barley) | T = Tillering or side shooting (Barley) | I = Interligular or internodal length reduction (Wheat)

CCC(Cl)CC#CC(O)(c1cncnc1)C(C)(C)C (stereo not shown) [Compound 38]
2 (31-60%): G = Greening effect (Wheat) | R = Retardation (Wheat) | G = Greening effect (Tomato)
3 (61-100%): G = Greening effect (Barley) | I = Interligular or internodal length reduction (Barley) | R = Retardation (Barley) | T = Tillering or side shooting (Barley) | I = Interligular or internodal length reduction (Wheat) | I = Interligular or internodal length reduction (Tomato) | R = Retardation (Tomato)
1 (10-30%): T = Tillering or side shooting (Wheat)

CC(C)(C)/C=C/C(O)(c1cncnc1)C(C)(C)CF (stereo not shown) [Compound 49, 3-fluoro-2,2-dimethyl-1-(3,3-dimethylbut-1-ene)-1-(pyrimidin-5-yl)-propan-1-ol]
3 (61-100%): T = Tillering or side shooting (Barley)
1 (10-30%): G = Greening effect (Wheat) | T = Tillering or side shooting (Wheat) | G = Greening effect (Tomato) | I = Interligular or internodal length reduction (Tomato)
2 (31-60%): I = Interligular or internodal length reduction (Wheat) | R = Retardation (Wheat) | R = Retardation (Tomato)

CC(C)(C)C(O)(C#CCCCl)c1cncnc1 (stereo not shown) [Compound 36]
3 (61-100%): G = Greening effect (Barley) | I = Interligular or internodal length reduction (Barley) | R = Retardation (Barley) | T = Tillering or side shooting (Barley) | I = Interligular or internodal length reduction (Wheat)
1 (10-30%): T = Tillering or side shooting (Wheat)
2 (31-60%): G = Greening effect (Wheat) | R = Retardation (Wheat) | G = Greening effect (Tomato) | I = Interligular or internodal length reduction (Tomato) | R = Retardation (Tomato)

CCCCCCC#CC(O)(c1cncnc1)C(C)(C)C (stereo not shown) [Compound 33]
1 (10-30%): G = Greening effect (Wheat) | I = Interligular or internodal length reduction (Wheat) | G = Greening effect (Tomato) | I = Interligular or internodal length reduction (Tomato)
2 (31-60%): T = Tillering or side shooting (Barley) | R = Retardation (Tomato)

CC(C)C(O)(CC1CCCC1)c1cncnc1 (stereo not shown) [Compound 27]
2 (31-60%): G = Greening effect (Wheat) | I = Interligular or internodal length reduction (Wheat) | R = Retardation (Wheat) | G = Greening effect (Tomato) | I = Interligular or internodal length reduction (Tomato) | R = Retardation (Tomato)
2*: T = Tillering or side shooting (Barley)

CC(C)(C)/C=C/C(O)(c1cncnc1)C(C)(C)C (stereo not shown) [Compound 39]
1 (10-30%): G = Greening effect (Wheat)
2 (31-60%): T = Tillering or side shooting (Wheat) | G = Greening effect (Tomato)
3 (61-100%): I = Interligular or internodal length reduction (Barley) | R = Retardation (Barley) | T = Tillering or side shooting (Barley) | I = Interligular or internodal length reduction (Wheat) | R = Retardation (Wheat) | I = Interligular or internodal length reduction (Tomato) | R = Retardation (Tomato)

CC(C)CCCCC(O)(c1cncnc1)C(C)C (stereo not shown) [Compound 22]
2 (31-60%): G = Greening effect (Wheat) | I = Interligular or internodal length reduction (Wheat) | R = Retardation (Wheat) | G = Greening effect (Tomato) | I = Interligular or internodal length reduction (Tomato) | R = Retardation (Tomato)
1 (10-30%): I = Interligular or internodal length reduction (Barley) | R = Retardation (Barley) | I = Interligular or internodal length reduction (Apple) | R = Retardation (Apple) | T = Tillering or side shooting (Wheat) | T = Tillering or side shooting (Tomato; * = decrease in tillering)
